According to US6323195A, “Galanthamine derivatives as acetylcholinesterase inhibitors” (priority 1993, dated 2001):
Where a name gives a salt, the structure may show the parent alone.

How the values were obtained:
[1] = tested on: mice; format: in vivo; conditions: SDDA Dose 0.003 mg/kg, s.c., retest after 24 hours
Protocol: This utility can also be ascertained by determining the ability of these compounds to restore cholinergically deficient memory in the Dark Avoidance Assay. In this assay mice are tested for their ability to remember an unpleasant stimulus for a period of 24 hours. A mouse is placed in a chamber that contains a dark compartment; a strong incandescent light drives it to the dark compartment, where an electric shock is administered through metal plates on the floor. The animal is removed from the testing apparatus and tested again, 24 hours later, for the ability to remember the electric shock.
If scopolamine, an anticholinergic that is known to cause memory impairment, is administered before an animal's initial exposure to the test chamber, the animal re-enters the dark compartment shortly after being placed in the test chamber 24 hours later. This effect of scopolamine is blocked by an active test compounds, resulting in a greater interval before reentry into the dark compartment.
The test results are expressed as the percent of a group of animals in which the effect of scopolamine is blocked, as manifested by an increased interval between being placed in the test chamber and reentering the dark compartment. Results of Dark Avoidance Assay for some of the compounds of this invention are presented in Table II along with a result for a reference compounds.

[2] = target: acetylcholinesterase (Homo sapiens, UniProt P22303); assay: Acetylcholinesterase Inhibition Assay (photometric method of Ellman et al.); format: biochemical
Sequence of acetylcholinesterase (P22303 32-614): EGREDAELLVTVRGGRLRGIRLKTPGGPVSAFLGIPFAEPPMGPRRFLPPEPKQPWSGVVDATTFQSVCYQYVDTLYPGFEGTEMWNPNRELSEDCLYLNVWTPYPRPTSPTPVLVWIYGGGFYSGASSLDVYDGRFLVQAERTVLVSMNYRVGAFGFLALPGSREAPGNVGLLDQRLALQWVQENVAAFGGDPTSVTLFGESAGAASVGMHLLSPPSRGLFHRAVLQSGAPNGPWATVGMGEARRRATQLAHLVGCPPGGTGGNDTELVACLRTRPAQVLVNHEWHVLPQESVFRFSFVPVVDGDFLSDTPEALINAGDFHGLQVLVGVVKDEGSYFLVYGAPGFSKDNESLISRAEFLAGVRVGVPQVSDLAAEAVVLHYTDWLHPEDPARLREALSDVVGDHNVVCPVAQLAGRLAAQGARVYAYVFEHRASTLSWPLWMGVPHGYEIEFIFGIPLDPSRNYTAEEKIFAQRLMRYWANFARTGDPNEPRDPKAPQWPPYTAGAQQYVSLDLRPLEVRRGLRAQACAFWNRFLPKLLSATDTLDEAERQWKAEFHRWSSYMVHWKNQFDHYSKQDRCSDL

CN1CC[C@@]23C=C[C@H](O)C[C@@H]2Oc2c(OC(=O)N4CCc5ccccc5C4)ccc(c23)C1 [Example 2, (6-O-Demethyl)-6-O-(1,2,3,4-tetrahydroisoquinolin-2-yl)carbonyl]-galanthamine hydrochloride]
Percent of Animals with Scopolamine Induced Memory Deficit Reversal [1]: 27% of Animals | IC50 [2]: 0.9 nM
